Source: patent US20210177796A1, “COMPOSITION FOR PREVENTING OR TREATING INFLAMMATORY DISEASES, CONTAINING MARINE FUNGUS PENICILLIUM SP. SF-5859-DERIVED CURVULARIN-TYPE METABOLITES” (KOREA INSITITUTE OF OCEAN SCIENCE AND TECHNOLOGY, priority 2017, published 2021)
Where two headings read alike, the source gives them in different places.

Legend:
Type in all cases: cell-based
[1] = test system: NO production in LPS-treated RAW 264.7 macrophages; test: Inhibition of NO (nitrite) production in LPS-treated RAW264.7 macrophages, Griess reaction; details: RAW 264.7 macrophages pre-treated 3 hours, then LPS (1 μg/mL) 24 hours
Method: As an indicator of NO production in RAW264.7 macrophages, production of nitrite, which is a stable end-product of NO oxidation, was evaluated. The concentration of nitrite in conditioned media was determined based on the Griess reaction.
(§1) In the present example, RAW264.7 macrophages were pre-treated for 3 hours in the medium containing non-toxic concentrations (Table 1) of each compound (Formula 1 to 4), and then LPS (1 μg/mL) was treated for 24 hours. According to the LPS stimulation of RAW264.7 macrophages, the production of NO and PGE2 was increased, and the effects of all compounds on the production levels of NO and PGE2 were evaluated by the Griess reaction and a PGE2 kit, respectively.

[2] = test system: RAW264.7 macrophages; test: Cytotoxicity by MTT assay
Method: In the present example, the cytotoxicity of each of the compounds of Formula 1 to 4 was confirmed in RAW264.7 macrophages by MTT assay.
RAW264.7 macrophages were maintained at a density of 5×10^5 cells/mL in RPMI1640 medium supplemented with 10% heat-inactivated FBS, penicillin G (100 units/mL), streptomycin ([…]), and L-glutamine (2 mM), and were incubated at 37° C. in a humidified atmosphere containing 5% CO2. To determine cell viability, cells (1×10^5 cells/well in 96-well plates) were incubated with 3-(4,5-dimethylthiazol-2-yl)-2,5-diphenyltetrazolium bromide (MTT) at a final concentration of 0.5 mg/mL for 3 hours, and the formazan formed was dissolved in acidic 2-propanol. The optical density was measured at 540 nm with a microplate reader (BioRad, Hercules, Calif., USA). The optical density of the formazan formed in control (untreated) cells was considered to represent 100% viability.

[3] = test system: PGE2 production in LPS-treated RAW 264.7 macrophages; test: Inhibition of PGE2 production in LPS-treated RAW264.7 macrophages, PGE2 ELISA kit; details: RAW 264.7 macrophages pre-treated 3 hours, then LPS (1 μg/mL) 24 hours
Excerpt: RPMI1640, fetal bovine serum (FBS), and other tissue culture reagents were purchased from Gibco BRL Co. (Grand Island, N.Y., USA). All other chemicals were obtained from Sigma-Aldrich Co. (St. Louis, Mo., USA). Primary antibodies (COX-2: sc-1745; iNOS: sc-650; IκB-α: sc-371; p-IκB-α: sc-8404; p50: sc-7178; p65: sc-8008, Santa Cruz Biotechnology, Dallas, Tex., USA, p-ERK: #9101; ERK: #9102; p-JNK: #9251; JNK: #9252S; p-p38: #9211; p38: 9212S, Cell Signaling Technology, Danvers, Mass., USA) and secondary antibodies (mouse: ap124p; goat: ap106p; rabbit: ap132p, Millipore, Billerica Mass., USA) were used. Enzyme-linked immunosorbent assay (ELISA) kits for PGE2 were purchased from R and D Systems, Inc. (Minneapolis, Minn., USA).
as §1

[4] = test system: iNOS; test: iNOS protein expression in LPS-stimulated RAW264.7 macrophages; details: pre-treated 3 hours, LPS 24 hours; FIG. 1(a)
Method: (§2) Therefore, the inventors of the present invention further tested whether the inhibitory effects of the compound of Formula 3 against NO and PGE2 productions are correlated with the protein expression of pro-inflammatory enzymes (e.g., iNOS or COX-2, respectively), which are known to catalyze the production of NO and PGEs in LPS-stimulated cells. RAW264.7 macrophages were pre-treated with the indicated concentrations of the compound of Formula 3 for 3 hours, and then stimulated with LPS for 24 hours. The presence of the compound of Formula 3 led to the attenuation of the excessive protein expression of iNOS and COX-2 in a dose-dependent manner (see FIG. 1(a)).

[5] = test system: TNF-α; test: TNF-α mRNA expression in LPS-induced cells, RT-qPCR; details: pre-treated 3 hours, LPS (1 μg/mL) 6 hours; FIG. 1(d)
Method: (§3) In addition, upon stimulation by LPS, macrophages can trigger the production of pro-inflammatory cytokines such as TNF-α and ILs. The overproduction of these cytokines contributes to the pathogenesis of inflammatory diseases. Thus, the inventors of the present invention further evaluated the effects of the compound of Formula 3 on the mRNA expression of pro-inflammatory cytokines in the LPS-induced cells. The cells were pre-treated with indicated concentration for 3 hours, followed by LPS stimulation (1 μg/mL) for 6 hours. The mRNA expression of pro-inflammatory cytokines was determined by RT-qPCR.

[6] = test system: NF-κB (p50 and p65); test: NF-κB activation: nuclear translocation of p50 and p65 in LPS-induced RAW264.7 macrophages; details: FIG. 2(a)
[7] = test system: IκB-α; test: IκB-α phosphorylation and degradation in LPS-induced RAW264.7 macrophages; details: FIG. 2(b)
Method: (§4) In the present example, a NF-κB ELISA kit (Active Motif) was used to test the nuclear extracts and determine the degree of NF-κB binding. […] Furthermore, when the cells were treated with LPS alone, the phosphorylation level of IκB-α was increased, whereas the compound of Formula 3 attenuated this phosphorylation of IκB-α. In addition, the compound of Formula 3 blocked the degradation of IκB-α in a concentration-dependent manner (see FIG. 2(b)). In line with these, LPS-induced DNA binding activity of NF-κB was declined in the nuclear extracts of the cells co-treated with the compound of Formula 3 (see FIG. 2(c)).

[8] = test system: p38; test: LPS-induced p38 phosphorylation in RAW264.7 macrophages; details: LPS 30 minutes; FIG. 3(a)
Excerpt: (§5) Mitogen-activated protein kinase (MAPK) pathways are known to be involved in the expression of pro-inflammatory cytokines in macrophages. Thus, the effect of the compound of Formula 3 on the LPS-induced phosphorylation of MAPK was examined.

[9] = test system: NF-κB; test: DNA binding activity of NF-κB in nuclear extracts, NF-κB ELISA kit; details: FIG. 2(c)
Method: as §4

[10] = test system: IL-1β; test: IL-1β mRNA expression in LPS-induced cells, RT-qPCR; details: pre-treated 3 hours, LPS (1 μg/mL) 6 hours; FIG. 1(b)
Method: as §3

[11] = test system: c-Jun N-terminal kinase (JNK); test: LPS-induced JNK phosphorylation in RAW264.7 macrophages; details: LPS 30 minutes; FIG. 3(b)
Excerpt: as §5

[12] = test system: COX-2; test: COX-2 protein expression in LPS-stimulated RAW264.7 macrophages; details: pre-treated 3 hours, LPS 24 hours; FIG. 1(a)
Method: as §2

[13] = test system: extracellular signal-regulated kinase (ERK); test: LPS-induced ERK phosphorylation in RAW264.7 macrophages; details: LPS 30 minutes; FIG. 3(c)
Excerpt: as §5

[14] = test system: IL-6; test: IL-6 mRNA expression in LPS-induced cells, RT-qPCR; details: pre-treated 3 hours, LPS (1 μg/mL) 6 hours; FIG. 1(c)
Method: as §3

| Molecule | IC50 [1] | Cytotoxicity (μM): the maximum concentration not affecting cell viability ([2]; RAW264.7 macrophages, MTT) | IC50 [3] | further results |
| --- | --- | --- | --- | --- |
| CO[C@H]1CCC[C@H](C)OC(=O)Cc2cc(O)cc(O)c2C1=O [Formula 2d, (11S,15S)-11-methoxycurvularin] | 3.5 ± 0.5 µM | 20 µM | 6 ± 1.9 µM |  |
| C[C@H]1CCC[C@@H](O)CC(=O)c2c(O)cc(O)cc2CC(=O)O1 [Formula 2a, (11R,15S)-11-hydroxycurvularin] | 11.5 ± 2.7 µM | 40 µM | 15.6 ± 5.2 µM |  |
| CO[C@@H]1CCC[C@H](C)OC(=O)Cc2cc(O)cc(O)c2C(=O)C1 [Formula 2c, (11R,15S)-11-methoxycurvularin] | 2.6 ± 0.4 µM | 20 µM | 3 ± 1.3 µM |  |
| C[C@H]1CCC/C=C\C(=O)c2c(O)cc(O)cc2CC(=O)O1 [Formula 4, (10Z,15S)-10,11-dehydrocurvularin] |  | 20 µM |  | IC50 ([1]; Mus musculus, RAW264.7): 4.4 ± 0.8 µM; IC50 ([3]; Mus musculus, RAW264.7): 6.2 ± 1.1 µM |
| COc1cc(O)c2c(c1)CC(=O)O[C@@H](C)CCCCCC2=O [Formula 1b, 5-O-methylcurvularin] | > 80 µM | >80 µM | 40.2 ± 5.1 µM |  |
| 5,7-Di-O-methylcurvularin [Formula 1c] | 60.6 ± 16.4 µM |  | 49.4 ± 14 µM | Cytotoxicity (μM): the maximum concentration not affecting cell viability [2]: >80 µM |
| C[C@H]1CCC[C@H](O)C(=O)c2c(O)cc(O)cc2CC(=O)O1 [Formula 2b, (11S,15S)-11-hydroxycurvularin] | 7.2 ± 1.6 µM | 40 µM | 14.1 ± 4 µM |  |
| CC(=O)Oc1cc(O)c2c(c1)CC(=O)O[C@@H](C)CCCCCC2=O [Formula 1d, 5-O-acetylcurvularin] | 46.9 ± 3.7 µM |  | 73.7 ± 17.1 µM | Cytotoxicity (μM): the maximum concentration not affecting cell viability [2]: >80 µM |
| 5,7-Di-O-acetylcurvularin [Formula 1e] | 77.5 ± 9.3 µM |  | > 80 µM | Cytotoxicity (μM): the maximum concentration not affecting cell viability [2]: >80 µM |
| CC1CCCCCC(=O)c2c(O)cc(O)cc2CC(=O)O1 (stereo not drawn) [Formula 1a, curvularin] | 18.1 ± 5.2 µM | 40 µM | 18.7 ± 4.9 µM |  |
| C[C@H]1CCC/C=C/C(=O)c2c(O)cc(O)cc2CC(=O)O1 [Formula 3, (10E,15S)-10,11-dehydrocurvularin] |  | 20 µM |  | Protein expression of iNOS [4]: attenuation; mRNA expression of TNF-α [5]: significantly suppressed; Nuclear translocation of p50 and p65 [6]: dose-dependently suppressed; Degradation of IκB-α [7]: blocked; Phosphorylation of IκB-α [7]: attenuated; Phosphorylation of p38 [8]: did not suppress; LPS-induced DNA binding activity of NF-κB [9]: declined; mRNA expression of IL-1β [10]: significantly suppressed; IC50 ([1]; Mus musculus, RAW264.7): 1.9 ± 0.3 µM; Phosphorylation of JNK [11]: did not suppress; IC50 ([3]; Mus musculus, RAW264.7): 2.7 ± 0.4 µM; Protein expression of COX-2 [12]: attenuation; Phosphorylation of ERK [13]: did not suppress; mRNA expression of IL-6 [14]: significantly suppressed |
